Test results as given in ChEMBL document CHEMBL1137464, “Novel steroidal saponins, Sch 725737 and Sch 725739, from a marine starfish, Novodinia antillensis” (Bioorg Med Chem Lett, 2007).

What was measured:
[1] = target: T1, Sodium channel protein type 10 subunit alpha (Homo sapiens, UniProt Q9Y5Y9); assay: Inhibition of sodium channel NaV1.8 expressed in rat ND7/23 cells by FLIPR assay; type: cell-based
Target sequence in this assay (Q9Y5Y9 whole entry): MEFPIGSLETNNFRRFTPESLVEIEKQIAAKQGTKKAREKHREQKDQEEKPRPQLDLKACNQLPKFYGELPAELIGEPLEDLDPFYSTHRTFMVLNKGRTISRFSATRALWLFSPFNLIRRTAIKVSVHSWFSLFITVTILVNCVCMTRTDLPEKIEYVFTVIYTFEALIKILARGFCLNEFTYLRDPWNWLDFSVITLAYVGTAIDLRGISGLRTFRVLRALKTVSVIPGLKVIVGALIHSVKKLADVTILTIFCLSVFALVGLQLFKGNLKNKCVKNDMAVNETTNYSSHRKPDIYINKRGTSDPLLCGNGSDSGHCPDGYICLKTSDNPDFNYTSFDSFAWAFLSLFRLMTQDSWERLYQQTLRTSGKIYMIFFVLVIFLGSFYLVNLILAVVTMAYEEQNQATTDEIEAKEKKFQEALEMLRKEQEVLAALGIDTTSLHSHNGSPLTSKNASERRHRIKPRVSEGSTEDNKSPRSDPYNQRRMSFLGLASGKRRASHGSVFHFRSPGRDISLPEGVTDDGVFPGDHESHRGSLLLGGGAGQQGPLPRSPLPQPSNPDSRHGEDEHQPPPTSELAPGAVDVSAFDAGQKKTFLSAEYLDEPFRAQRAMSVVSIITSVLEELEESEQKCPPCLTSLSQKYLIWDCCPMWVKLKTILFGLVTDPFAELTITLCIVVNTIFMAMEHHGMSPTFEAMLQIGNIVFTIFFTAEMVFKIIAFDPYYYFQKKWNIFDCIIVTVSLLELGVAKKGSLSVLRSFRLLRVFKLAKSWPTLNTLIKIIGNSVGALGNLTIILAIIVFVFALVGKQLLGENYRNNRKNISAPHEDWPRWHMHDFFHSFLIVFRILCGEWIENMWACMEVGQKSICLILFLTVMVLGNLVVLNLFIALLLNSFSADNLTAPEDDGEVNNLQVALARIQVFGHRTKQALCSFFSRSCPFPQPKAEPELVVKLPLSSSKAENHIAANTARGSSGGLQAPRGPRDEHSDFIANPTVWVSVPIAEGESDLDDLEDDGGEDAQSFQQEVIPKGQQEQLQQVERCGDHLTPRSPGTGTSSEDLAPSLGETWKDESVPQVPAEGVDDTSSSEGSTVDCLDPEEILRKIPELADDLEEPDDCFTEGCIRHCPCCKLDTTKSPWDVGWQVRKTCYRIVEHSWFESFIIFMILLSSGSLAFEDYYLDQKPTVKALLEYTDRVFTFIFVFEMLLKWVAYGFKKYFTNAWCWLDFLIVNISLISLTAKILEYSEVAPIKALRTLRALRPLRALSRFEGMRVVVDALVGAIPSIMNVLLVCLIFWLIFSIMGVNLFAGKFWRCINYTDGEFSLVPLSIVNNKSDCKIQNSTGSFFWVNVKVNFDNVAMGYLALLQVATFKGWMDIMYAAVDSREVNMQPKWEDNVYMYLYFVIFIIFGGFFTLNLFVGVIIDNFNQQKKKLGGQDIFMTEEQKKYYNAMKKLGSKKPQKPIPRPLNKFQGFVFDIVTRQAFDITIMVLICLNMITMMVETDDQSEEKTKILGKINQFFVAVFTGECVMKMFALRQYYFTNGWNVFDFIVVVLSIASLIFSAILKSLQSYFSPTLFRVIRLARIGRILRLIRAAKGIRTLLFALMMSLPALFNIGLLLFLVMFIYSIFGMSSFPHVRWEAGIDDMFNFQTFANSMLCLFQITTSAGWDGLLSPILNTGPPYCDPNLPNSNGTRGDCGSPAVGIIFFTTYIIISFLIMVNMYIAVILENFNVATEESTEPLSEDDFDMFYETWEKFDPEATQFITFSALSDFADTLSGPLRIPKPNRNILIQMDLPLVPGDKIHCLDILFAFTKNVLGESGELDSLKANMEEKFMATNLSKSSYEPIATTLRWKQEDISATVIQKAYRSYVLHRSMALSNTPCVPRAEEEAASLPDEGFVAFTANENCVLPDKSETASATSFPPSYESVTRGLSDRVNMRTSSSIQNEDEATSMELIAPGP

[2] = target: T1, Sodium channel protein type 10 subunit alpha; assay: Inhibition of sodium channel NaV1.8 at 20 ug/mL by HTS assay
Target sequence in this assay (Q9Y5Y9 whole entry, looked up): as the sequence (Q9Y5Y9 whole entry) above

IC50 [1] [µM]	inhibition [2] [%]	SMILES
9	88	CC(C)CCC[C@@](C)(O)[C@H]1CC[C@H]2[C@@H]3C[C@H](O[C@@H]4O[C@H](C)[C@@H](O)[C@H](O[C@@H]5OC[C@@H](O[C@@H]6O[C@H](C)[C@@H](O[C@@H]7OC[C@H](O)[C@H](O)[C@H]7O)[C@H](O)[C@H]6O[C@@H]6O[C@H](C)[C@H](O)[C@H](O)[C@H]6O)[C@H](O)[C@H]5O[C@@H]5O[C@H](C)[C@@H](O)[C@H](O)[C@H]5O)[C@H]4O)[C@H]4C[C@@H](OS(=O)(=O)O)CC[C@]4(C)C3=CC[C@@]21C
	88	CC(C)CCC[C@@](C)(O)[C@H]1CC[C@H]2[C@@H]3C[C@H](O[C@@H]4O[C@H](C)[C@@H](O)[C@H](O[C@@H]5O[C@H](C)[C@@H](O[C@@H]6O[C@H](C)[C@@H](O[C@@H]7OC[C@H](O)[C@H](O)[C@H]7O)[C@H](O)[C@H]6O[C@@H]6O[C@H](C)[C@H](O)[C@H](O)[C@H]6O)[C@H](O)[C@H]5O[C@@H]5O[C@H](C)[C@@H](O)[C@H](O)[C@H]5O)[C@H]4O)[C@H]4C[C@@H](OS(=O)(=O)O)CC[C@]4(C)C3=CC[C@@]21C
